According to ChEMBL document CHEMBL6177982, “Structural Optimization of Pyrazole Compounds as Hsp90 Regulators with Enhanced Antitumor Activity” (J Med Chem, 2025):

Tested on: HCT-116
Test: Antiproliferative activity against CDC37 knockout human HCT-116 cells assessed as inhibition of cell proliferation incubated for 72 hrs by MTT assay
Assay type: functional, cell-based
Conditions: HCT-116, 72 h

Compound | IC50 [µM]
NC(=O)C1CCCCN1C(=O)/C=C/c1cn(-c2ccccc2)nc1-c1ccccn1 (stereo unspecified) | > 100
NC(=O)C1CCCCN1C(=O)/C=C/c1cn(-c2ccccc2)nc1-c1cncc(C(F)(F)F)c1 (stereo unspecified) | > 50
Cc1cccc(S(=O)(=O)/C=C/c2cn(-c3ccccc3)nc2-c2cccnc2)c1 | > 50
COc1ncccc1-c1nn(-c2ccccc2)cc1/C=C/C(=O)N1CCCCC1C(N)=O (stereo unspecified) | > 50
NC(=O)C1CCCCN1C(=O)/C=C/c1cn(-c2ccccc2)nc1-c1ccc2ccccc2c1 (stereo unspecified) | > 50
NC(=O)C1CCCCN1C(=O)/C=C/c1cn(-c2ccccc2)nc1-c1cccnc1 (stereo unspecified) | > 100
NC(=O)C1CCCCN1C(=O)/C=C/c1cn(-c2ccccc2)nc1-c1cccc([N+](=O)[O-])c1 (stereo unspecified) | > 50
Cc1cc(-c2nn(-c3ccccc3)cc2/C=C/C(=O)N2CCCCC2C(N)=O)ccc1F (stereo unspecified) | > 50
NC(=O)C1CCCCN1C(=O)/C=C/c1cn(-c2ccccc2)nc1-c1ccco1 (stereo unspecified) | > 50
COc1cc(-c2nn(-c3ccccc3)cc2/C=C/C(=O)N2CCCCC2C(N)=O)ccc1Cl (stereo unspecified) | > 50
NC(=O)C1CCCCN1C(=O)/C=C/c1cn(-c2ccccc2)nc1-c1cccc(N)c1 (stereo unspecified) | > 50

Further molecules by falling IC50, results first:

IC50 [µM] | Compound
49.9 | CCN(CC)C(=O)/C=C/c1cn(-c2ccccc2)nc1-c1cccnc1
48.1 | CCCN(C)C(=O)/C=C/c1cn(-c2ccccc2)nc1-c1cccnc1
46 | CN(C)C(=O)/C=C/c1cn(-c2ccccc2)nc1-c1cccnc1
44.5 | NC(=O)C1CCCCN1C(=O)/C=C/c1cn(-c2ccccc2)nc1-c1cccc(Br)c1 (stereo unspecified)
42.7 | Cc1cc(-c2nn(-c3ccccc3)cc2/C=C/C(=O)N2CCCCC2C(N)=O)ccc1Cl (stereo unspecified)
42.2 | NC(=O)C1CCCCN1C(=O)/C=C/c1cn(-c2ccccc2)nc1-c1cccc(F)c1 (stereo unspecified)
32.3 | NC(=O)C1CCCCN1C(=O)/C=C/c1cn(-c2ccccc2)nc1-c1ccc(Cl)cc1 (stereo unspecified)
30.8 | Cc1ccc(-c2nn(-c3ccccc3)cc2/C=C/C(=O)N2CCCCC2C(N)=O)cc1 (stereo unspecified)
28.2 | NC(=O)C1CCCCN1C(=O)/C=C/c1cn(-c2ccccc2)nc1-c1cccc(Cl)c1 (stereo unspecified)
27.5 | Cc1ccccc1-c1nn(-c2ccccc2)cc1/C=C/C(=O)N1CCCCC1C(N)=O (stereo unspecified)
25.1 | Cc1ccc(-c2nn(-c3ccccc3)cc2/C=C/C(=O)N2CCCCC2C(N)=O)cc1C (stereo unspecified)

Tested on: HCT-116
Test: Antiproliferative activity against human HCT-116 cells assessed as inhibition of cell proliferation incubated for 72 hrs by MTT assay
Assay type: functional, cell-based
Conditions: HCT-116, 72 h

Compound | IC50 [µM]
NC(=O)C1CCCCN1C(=O)/C=C/c1cn(-c2ccccc2)nc1-c1ccccn1 (stereo unspecified) | 7.11
NC(=O)C1CCCCN1C(=O)/C=C/c1cn(-c2ccccc2)nc1-c1cncc(C(F)(F)F)c1 (stereo unspecified) | > 50
Cc1cccc(S(=O)(=O)/C=C/c2cn(-c3ccccc3)nc2-c2cccnc2)c1 | 4.23
COc1ncccc1-c1nn(-c2ccccc2)cc1/C=C/C(=O)N1CCCCC1C(N)=O (stereo unspecified) | 12.5
NC(=O)C1CCCCN1C(=O)/C=C/c1cn(-c2ccccc2)nc1-c1ccc2ccccc2c1 (stereo unspecified) | > 50
NC(=O)C1CCCCN1C(=O)/C=C/c1cn(-c2ccccc2)nc1-c1cccnc1 (stereo unspecified) | 6.12
NC(=O)C1CCCCN1C(=O)/C=C/c1cn(-c2ccccc2)nc1-c1cccc([N+](=O)[O-])c1 (stereo unspecified) | > 50
Cc1cc(-c2nn(-c3ccccc3)cc2/C=C/C(=O)N2CCCCC2C(N)=O)ccc1F (stereo unspecified) | 12.6
NC(=O)C1CCCCN1C(=O)/C=C/c1cn(-c2ccccc2)nc1-c1ccco1 (stereo unspecified) | 9.79
COc1cc(-c2nn(-c3ccccc3)cc2/C=C/C(=O)N2CCCCC2C(N)=O)ccc1Cl (stereo unspecified) | 11
NC(=O)C1CCCCN1C(=O)/C=C/c1cn(-c2ccccc2)nc1-c1cccc(N)c1 (stereo unspecified) | 9.11

The remaining lines, values ahead:

IC50 [µM] | Compound
10.3 | CCN(CC)C(=O)/C=C/c1cn(-c2ccccc2)nc1-c1cccnc1
9.26 | CCCN(C)C(=O)/C=C/c1cn(-c2ccccc2)nc1-c1cccnc1
12.4 | CN(C)C(=O)/C=C/c1cn(-c2ccccc2)nc1-c1cccnc1
12.2 | NC(=O)C1CCCCN1C(=O)/C=C/c1cn(-c2ccccc2)nc1-c1cccc(Br)c1 (stereo unspecified)
10.6 | Cc1cc(-c2nn(-c3ccccc3)cc2/C=C/C(=O)N2CCCCC2C(N)=O)ccc1Cl (stereo unspecified)
14.2 | NC(=O)C1CCCCN1C(=O)/C=C/c1cn(-c2ccccc2)nc1-c1cccc(F)c1 (stereo unspecified)
11.8 | NC(=O)C1CCCCN1C(=O)/C=C/c1cn(-c2ccccc2)nc1-c1ccc(Cl)cc1 (stereo unspecified)
10.9 | Cc1ccc(-c2nn(-c3ccccc3)cc2/C=C/C(=O)N2CCCCC2C(N)=O)cc1 (stereo unspecified)
9.17 | NC(=O)C1CCCCN1C(=O)/C=C/c1cn(-c2ccccc2)nc1-c1cccc(Cl)c1 (stereo unspecified)
10.2 | Cc1ccccc1-c1nn(-c2ccccc2)cc1/C=C/C(=O)N1CCCCC1C(N)=O (stereo unspecified)
7.83 | Cc1ccc(-c2nn(-c3ccccc3)cc2/C=C/C(=O)N2CCCCC2C(N)=O)cc1C (stereo unspecified)

Tested on: not listed separately
Test: Selectivity ratio of IC50 for antiproliferative activity against CDC37 knockout human HCT-116 cells to IC50 for antiproliferative activity against human HCT-116 cells
Assay type: functional
Conditions: not given

Compound | Ratio IC50
NC(=O)C1CCCCN1C(=O)/C=C/c1cn(-c2ccccc2)nc1-c1ccccn1 (stereo unspecified) | >10
Cc1cccc(S(=O)(=O)/C=C/c2cn(-c3ccccc3)nc2-c2cccnc2)c1 | >10
COc1ncccc1-c1nn(-c2ccccc2)cc1/C=C/C(=O)N1CCCCC1C(N)=O (stereo unspecified) | <5
Cc1ccccc1-c1nn(-c2ccccc2)cc1/C=C/C(=O)N1CCCCC1C(N)=O (stereo unspecified) | 2.7
Cc1cc(-c2nn(-c3ccccc3)cc2/C=C/C(=O)N2CCCCC2C(N)=O)ccc1Cl (stereo unspecified) | 4
CCN(CC)C(=O)/C=C/c1cn(-c2ccccc2)nc1-c1cccnc1 | 4.8
Cc1ccc(-c2nn(-c3ccccc3)cc2/C=C/C(=O)N2CCCCC2C(N)=O)cc1 (stereo unspecified) | 2.8
NC(=O)C1CCCCN1C(=O)/C=C/c1cn(-c2ccccc2)nc1-c1cccnc1 (stereo unspecified) | >10
NC(=O)C1CCCCN1C(=O)/C=C/c1cn(-c2ccccc2)nc1-c1cccc(F)c1 (stereo unspecified) | 3
Cc1ccc(-c2nn(-c3ccccc3)cc2/C=C/C(=O)N2CCCCC2C(N)=O)cc1C (stereo unspecified) | 3.2
CCCN(C)C(=O)/C=C/c1cn(-c2ccccc2)nc1-c1cccnc1 | 5.2
Cc1cc(-c2nn(-c3ccccc3)cc2/C=C/C(=O)N2CCCCC2C(N)=O)ccc1F (stereo unspecified) | <5
NC(=O)C1CCCCN1C(=O)/C=C/c1cn(-c2ccccc2)nc1-c1ccc(Cl)cc1 (stereo unspecified) | 2.7
NC(=O)C1CCCCN1C(=O)/C=C/c1cn(-c2ccccc2)nc1-c1ccco1 (stereo unspecified) | >5
NC(=O)C1CCCCN1C(=O)/C=C/c1cn(-c2ccccc2)nc1-c1cccc(Cl)c1 (stereo unspecified) | 3.1
NC(=O)C1CCCCN1C(=O)/C=C/c1cn(-c2ccccc2)nc1-c1cccc(Br)c1 (stereo unspecified) | 3.6
CN(C)C(=O)/C=C/c1cn(-c2ccccc2)nc1-c1cccnc1 | 3.7
COc1cc(-c2nn(-c3ccccc3)cc2/C=C/C(=O)N2CCCCC2C(N)=O)ccc1Cl (stereo unspecified) | <5
NC(=O)C1CCCCN1C(=O)/C=C/c1cn(-c2ccccc2)nc1-c1cccc(N)c1 (stereo unspecified) | >5

Biological target: Heat shock protein HSP 90-beta/Hsp90 co-chaperone Cdc37 (Homo sapiens) (UniProt P08238+Q16543)
Test: Inhibition of His-tagged HSP90(unknown origin)/GST-tagged CDC37 (unknown origin) protein-protein interaction at 100 uM preincubated with HSP90 for 1 hrs followed by CDC37 addition and measured after 1 hrs by HTRF assay relative to control
Assay type: protein-complex assay
Conditions: not given

Compound | inhibition [%]
NC(=O)C1CCCCN1C(=O)/C=C/c1cn(-c2ccccc2)nc1-c1ccccn1 (stereo unspecified) | 69.5
NC(=O)C1CCCCN1C(=O)/C=C/c1cn(-c2ccccc2)nc1-c1cncc(C(F)(F)F)c1 (stereo unspecified) | < 20
Cc1cccc(S(=O)(=O)/C=C/c2cn(-c3ccccc3)nc2-c2cccnc2)c1 | 83.2
COc1ncccc1-c1nn(-c2ccccc2)cc1/C=C/C(=O)N1CCCCC1C(N)=O (stereo unspecified) | 45.7
NC(=O)C1CCCCN1C(=O)/C=C/c1cn(-c2ccccc2)nc1-c1ccc2ccccc2c1 (stereo unspecified) | < 20
NC(=O)C1CCCCN1C(=O)/C=C/c1cn(-c2ccccc2)nc1-c1cccnc1 (stereo unspecified) | 74.4
NC(=O)C1CCCCN1C(=O)/C=C/c1cn(-c2ccccc2)nc1-c1cccc([N+](=O)[O-])c1 (stereo unspecified) | < 20
Cc1cc(-c2nn(-c3ccccc3)cc2/C=C/C(=O)N2CCCCC2C(N)=O)ccc1F (stereo unspecified) | 45.7
NC(=O)C1CCCCN1C(=O)/C=C/c1cn(-c2ccccc2)nc1-c1ccco1 (stereo unspecified) | 55.4
COc1cc(-c2nn(-c3ccccc3)cc2/C=C/C(=O)N2CCCCC2C(N)=O)ccc1Cl (stereo unspecified) | 43.3
NC(=O)C1CCCCN1C(=O)/C=C/c1cn(-c2ccccc2)nc1-c1cccc(N)c1 (stereo unspecified) | 68.3

Further lines, results first:

inhibition [%] | Compound
60.2 | CCN(CC)C(=O)/C=C/c1cn(-c2ccccc2)nc1-c1cccnc1
59.8 | CCCN(C)C(=O)/C=C/c1cn(-c2ccccc2)nc1-c1cccnc1
58.9 | CN(C)C(=O)/C=C/c1cn(-c2ccccc2)nc1-c1cccnc1
50.2 | NC(=O)C1CCCCN1C(=O)/C=C/c1cn(-c2ccccc2)nc1-c1cccc(Br)c1 (stereo unspecified)
46.9 | Cc1cc(-c2nn(-c3ccccc3)cc2/C=C/C(=O)N2CCCCC2C(N)=O)ccc1Cl (stereo unspecified)
45.6 | NC(=O)C1CCCCN1C(=O)/C=C/c1cn(-c2ccccc2)nc1-c1cccc(F)c1 (stereo unspecified)
45.4 | NC(=O)C1CCCCN1C(=O)/C=C/c1cn(-c2ccccc2)nc1-c1ccc(Cl)cc1 (stereo unspecified)
44.7 | Cc1ccc(-c2nn(-c3ccccc3)cc2/C=C/C(=O)N2CCCCC2C(N)=O)cc1 (stereo unspecified)
48.3 | NC(=O)C1CCCCN1C(=O)/C=C/c1cn(-c2ccccc2)nc1-c1cccc(Cl)c1 (stereo unspecified)
45.4 | Cc1ccccc1-c1nn(-c2ccccc2)cc1/C=C/C(=O)N1CCCCC1C(N)=O (stereo unspecified)
62.9 | Cc1ccc(-c2nn(-c3ccccc3)cc2/C=C/C(=O)N2CCCCC2C(N)=O)cc1C (stereo unspecified)

Tested on: not listed separately
Test: Permeability of compound at pH 7.4 incubated for 4 hrs by PAMPA based UV analysis
Assay type: ADME
Conditions: read-out: permeability

Papp at 4 h [×10⁻⁶ cm/s] | Compound
23 | Cc1ccc(-c2nn(-c3ccccc3)cc2/C=C/C(=O)N2CCCCC2C(N)=O)cc1C (stereo unspecified)

Tested on: HT-29
Test: Antiproliferative activity against human HT-29 cells assessed as inhibition of cell proliferation incubated for 72 hrs by MTT assay
Assay type: functional, cell-based
Conditions: HT-29, 72 h

IC50 [µM] | Compound
10.2 | Cc1ccc(-c2nn(-c3ccccc3)cc2/C=C/C(=O)N2CCCCC2C(N)=O)cc1C (stereo unspecified)

Tested on: SK-BR-3
Test: Antiproliferative activity against human SK-BR-3 cells assessed as inhibition of cell proliferation incubated for 72 hrs by MTT assay
Assay type: functional, cell-based
Conditions: SK-BR-3, 72 h

IC50 [µM] | Compound
13.9 | Cc1ccc(-c2nn(-c3ccccc3)cc2/C=C/C(=O)N2CCCCC2C(N)=O)cc1C (stereo unspecified)

Tested on: MCF7
Test: Antiproliferative activity against human MCF7 cells assessed as inhibition of cell proliferation incubated for 72 hrs by MTT assay
Assay type: functional, cell-based
Conditions: MCF7, 72 h

IC50 [µM] | Compound
12.2 | Cc1ccc(-c2nn(-c3ccccc3)cc2/C=C/C(=O)N2CCCCC2C(N)=O)cc1C (stereo unspecified)

Tested on: HT-1080
Test: Antiproliferative activity against human HT-1080 cells assessed as inhibition of cell proliferation incubated for 72 hrs by MTT assay
Assay type: functional, cell-based
Conditions: HT-1080, 72 h

IC50 [µM] | Compound
14.8 | Cc1ccc(-c2nn(-c3ccccc3)cc2/C=C/C(=O)N2CCCCC2C(N)=O)cc1C (stereo unspecified)

Tested on: CT26
Test: Antiproliferative activity against mouse CT26 cells assessed as inhibition of cell proliferation incubated for 72 hrs by MTT assay
Assay type: functional, cell-based
Conditions: CT26, 72 h

IC50 [µM] | Compound
9.24 | Cc1ccc(-c2nn(-c3ccccc3)cc2/C=C/C(=O)N2CCCCC2C(N)=O)cc1C (stereo unspecified)
